Test results reported in patent publication US8828922B2, “HSP therapy in conjunction with a low antigenicity diet” (Andromeda Biotech Ltd., priority 2004, dated 2014).
No end group written: not given here.

Key:
[1] = tested on: BB-DP rats; experiment: Diabetes incidence and onset after neonatal oral DiaPep277 with conventional or HC diet; format: in vivo, rat
Method: Experimental set-up: Group-housed BB-DP rats (breeding colony, Groningen, the Netherlands) were orally inoculated once per day with either placebo (aqua dist.) or Diapep277 at days 4, 5, 6 and 7 of life (black box in FIG. 1). Animals were treated in compliance with the principles of laboratory care (NIH publication no. 85-23, revised 1985) and the Dutch law on experimental animal care. Inoculation was done via a silicon-tube swallowed by the neonate and fluid was inoculated directly into the stomach. DiaPep277 was supplied by Peptor Ltd., Rehovot, Israel. It is an analog of the native 437-460 sequence of human hsp60, in which the existing cystein residues at positions 442 and 447 were replaced by valine, for better chemical stabilization. Per inoculation 300 μg/rat of Diapep277 in a volume of 300 μl was administered. At the age of 21 days (gray box in FIG. 1) rats were weaned either on a conventional, cereal-based diet (Hope Farms, rodent diet no. Rmh-B2181, Woerden, Netherlands) or on HC-diet, a modification of the AIN-93G diet containing 20% hydrolyzed casein (Pancase S; Redstar Bioproducts, Tara, Canada) as the source of aminoacids, 53% corn starch, 12% sucrose, 5% corn oil, 5% cellulose-type fiber (Solka-Floc; Teklad, Madison, Wis.) (Visser J. et al., 2003, Metabolism 52, 333-337, Scott F W et al., 1997, Diabetes 46, 589-598). In this study both sexes were used. In our colony 80% to 90% of the BB-DP rats spontaneously develop diabetes before the age of 130 days, with no gender differences. Body weights were measured three times per week. […] The degree of islet infiltration was measured using a Zeiss microscope and was rated as previously described (Visser J. et al., 2003, Metabolism 52, 333-337) with the addition of score 5 which is developed in our lab, to control for completely destroyed islets in severe insulitis. Per pancreas section, an average histological insulitis score was calculated by adding up the score of each islet and dividing it by the total number of islets counted. […]

[2] = tested on: spleen-derived lymphocytes; conditions: splenocytes from DiaPep277-treated rats; stimulation 5 or 25 microgram/ml; planned second study
Method: In this study, the preventive dose or control (PBS) is administered on days 4-14 to large groups of rats (30 per treatment arm), and followed up for signs of diabetes, as above. In addition, five rats of each group are sacrificed at 2 weeks, 1, 2, 3, 4 and 5 months of age, and at each time point the spleen is removed to determine the cytokine profile. Determination of the cytokine profile is performed by subjecting the spleen-derived lymphocytes to the following stimuli: None; Concanavalin A (1 microgram/ml); DiaPep277 (5 microgram/ml); DiaPep277 (25 microgram/ml).

[3] = tested on: NOD mice; conditions: subcutaneous administration; cited from earlier work

| Sequence | diabetes incidence ([1]; BB-DP rats, oral 300 μg/rat/day at days 4-7 of life, diet from weaning (day 21), followed to 140 days) [%] | improved chance of not developing diabetes ([1]; all animals receiving DiaPep277, endpoint analysis, χ^2) [fold] | protection against diabetes (in words) ([1]; neonatal oral administration alone, conventional diet) | cytokine response of splenocytes on DiaPep277 stimulation (in words) [2] | development of diabetes (in words) [3] |
| --- | --- | --- | --- | --- | --- |
| VLGGGVALLRVIPALDSLTPANED [DiaPep277] | 69 | 2.2 | did not lead to significant protection | focused Th2/Treg response |  |
| VLGGGCALLRCIPALDSLTPANED (cysteine pairing not given here) [p277, residues 437-460 of human Hsp60] |  |  |  |  | prevented the development of diabetes |
